The source of these data is US4200575A, “7[(2-Thiazolyl)-2-(oxoimino)acetamido]cephalosporin derivatives” (Takeda Chemical Industries, Ltd., priority 1977, dated 1980).

Holding throughout (test): Minimal inhibitory concentration (M.I.C.), agar dilution method
What all share (settings): TSA, inoculum 10^7 /ml
A general note: In agar dilution the substance is mixed into plates at graded concentrations.

The subject of one test is S. aureus 209P. The format is cell-based, Staphylococcus aureus. From the text:
(§1) (a) Determination of minimal inhibitory concentrations (Tables 1 to 8):
(§2) Procedure: agar dilution method

Another test relates to S. aureus 1840. The format is cell-based, Staphylococcus aureus.
From the text: as §1, §2

In a further test the test system is C. freundii GN 99. The format is cell-based, Citrobacter freundii.
From the text: as §1, §2

Another test concerns C. freundii GN 1706. The test is classed as cell-based, Citrobacter freundii.
From the text: as §1, §2

The subject of the next test is P. mirabilis GN 4359. The test is classed as cell-based, Proteus mirabilis.
From the text: as §1, §2

Another test deals with P. morganii IFO 3168. The format is cell-based, Proteus morganii.
From the text: as §1, §2

For another test, the system named is E. coli T-7. The test is classed as cell-based, Escherichia coli.
From the text: as §1, §2

The next test concerns E. coli NIHJ JC-2. The format is cell-based, Escherichia coli.
From the text: as §1, §2

The next test concerns P. vulgaris IFO 3988. The format is cell-based, Proteus vulgaris.
From the text: as §1, §2

The next test concerns P. vulgaris GN 4413. The format is cell-based, Proteus vulgaris.
From the text: as §1, §2

The next test has as its system S. marcescens IFO 12648. The test is classed as cell-based, Serratia marcescens.
From the text: as §1, §2

For the next test, the system named is S. marcescens TN 24. The format is cell-based, Serratia marcescens.
From the text: as §1, §2

The next test deals with P. rettgeri TN 338. The format is cell-based, Proteus rettgeri.
From the text: as §1, §2

A further test deals with P. rettgeri GN4733. The format is cell-based, Proteus rettgeri.
From the text: as §1, §2

For another test, the system named is K. pneumoniae DT. The test is classed as cell-based, Klebsiella pneumoniae.
From the text: as §1, §2

The test system of the next test is K. pneumoniae GN 3835. The format is cell-based, Klebsiella pneumoniae.
From the text: as §1, §2

A further test relates to E. cloacae TN 1282. The format is cell-based, Enterobacter cloacae.
From the text: as §1, §2

The test system of the next test is E. coli 0-111. The test is classed as cell-based, Escherichia coli.
From the text: The minimal inhibitory concentrations (M.I.C.) of some representative cephalosporin derivatives of this invention as produced by the procedures described in those examples and the minimal inhibitory concentrations of cephalothin [sodium 7-(2-thienylacetamido)-3-acetoxymethyl-3-cephem-4-carboxylate], cephaloridine [7-(2-thienylacetamido)-3-(1-pyridyl)methyl-3-cephem-4-carboxylic acid betaine] and cefazolin [sodium 7-(1H-tetrazol-1-yl)acetamido-3-(2-methyl-1,3,4-thiadiazol-5-yl)thiomethyl-3-cephem-4-carboxylate], which are among the clinically established and commercially available cephalosporins (as described, for example, in the New England Journal of Medicine 294, 24, 1976 and Journal of Pharmaceutical Science 64, 1899, 1975), both against various bacteria, as well as the therapeutic effects of some respresentative cephalosporin derivatives of this invention and of cephaloridine in infected mice, are shown in tables.
as §1, §2

Where only a bound is given, the exact number is not on record here.

As to `CNC(=O)O/N=C(\C(=O)NC1C(=O)N2C(C(=O)O)=C(CSc3cnn[nH]3)CSC12)c1csc(=N)[nH]1` (stereo not drawn) [Example IV - 9], the “minimal inhibitory concentration (M.I.C.)” value in the test on S. aureus 209P was 3.13; with S. aureus 1840, 3.13; in the test with C. freundii GN 99, 0.78; in the test with C. freundii GN 1706 it was 1.56; in the test with P. mirabilis GN 4359, 0.39; in the test with P. morganii IFO 3168, 0.78. Besides, the “minimal inhibitory concentration (M.I.C.)” value in the test with E. coli T-7 was 3.13; in the test with E. coli NIHJ JC-2, 0.78; in the test on P. vulgaris IFO 3988, 0.39; in the test on P. vulgaris GN 4413, 25; in the test with S. marcescens IFO 12648, 6.25; with S. marcescens TN 24 it was 6.25. For the same molecule, the “minimal inhibitory concentration (M.I.C.)” value with P. rettgeri TN 338 is given as ≤ 0.2; in the test with P. rettgeri GN4733 it was 1.56; with K. pneumoniae DT, ≤ 0.2; in the test on K. pneumoniae GN 3835, 0.78; with E. cloacae TN 1282 it was 6.25; in the test with E. coli 0-111, ≤ 0.2.

On to `CCCNC(=O)O/N=C(\C(=O)NC1C(=O)N2C(C(=O)O)=C(COC(N)=O)CSC12)c1csc(=N)[nH]1` (stereo not drawn) [Example II - 13], for which the “minimal inhibitory concentration (M.I.C.)” value with S. aureus 209P is listed as 1.56; in the test on S. aureus 1840, 3.13; in the test with C. freundii GN 99, 0.1; in the test on C. freundii GN 1706, 0.78; in the test with P. mirabilis GN 4359 it was 0.1; in the test on P. morganii IFO 3168, 3.13. For the same molecule, the “minimal inhibitory concentration (M.I.C.)” value with E. coli T-7 is reported as 1.56; with E. coli NIHJ JC-2, 0.2; in the test on P. vulgaris IFO 3988, 0.39; in the test on P. vulgaris GN 4413, 50; in the test on S. marcescens IFO 12648 it was 6.25; in the test with S. marcescens TN 24, 25. In addition, the “minimal inhibitory concentration (M.I.C.)” value with P. rettgeri TN 338 is ≤ 0.012; with P. rettgeri GN4733, 0.1; in the test on K. pneumoniae DT, 0.05; with K. pneumoniae GN 3835, 0.2; in the test on E. cloacae TN 1282, 6.25; in the test on E. coli 0-111 it was 0.05.

As for `CNC(=O)O/N=C(\C(=O)NC1C(=O)N2C(C(=O)O)=C(C)CSC12)c1csc(=N)[nH]1` (stereo not drawn) [Example II - 6], the “minimal inhibitory concentration (M.I.C.)” value with S. aureus 209P was found to be 50; with S. aureus 1840, 50; in the test with C. freundii GN 99 it was 6.25; with C. freundii GN 1706, 12.5; with P. mirabilis GN 4359, 0.78; in the test on P. morganii IFO 3168 it was 12.5. The “minimal inhibitory concentration (M.I.C.)” value with E. coli T-7 was 6.25; with E. coli NIHJ JC-2 it was 3.13; in the test on P. vulgaris IFO 3988, 1.56; with P. vulgaris GN 4413, 12.5; in the test with S. marcescens IFO 12648, 50; in the test with S. marcescens TN 24, 100. Moreover, the “minimal inhibitory concentration (M.I.C.)” value with P. rettgeri TN 338 was determined as 0.024; in the test with P. rettgeri GN4733 it was 0.2; in the test on K. pneumoniae DT it was 0.78; in the test with K. pneumoniae GN 3835, 1.56; with E. cloacae TN 1282, 50; in the test with E. coli 0-111, 0.78.

On to `CCCNC(=O)O/N=C(\C(=O)NC1C(=O)N2C(C(=O)O)=C(CSc3nnnn3C)CSC12)c1csc(=N)[nH]1` (stereo not drawn) [Example II - 14], for which the “minimal inhibitory concentration (M.I.C.)” value came out at 1.56 in the test with S. aureus 209P; 3.13 in the test on S. aureus 1840; 0.2 in the test on C. freundii GN 99; 0.39 with C. freundii GN 1706; 0.39 with P. mirabilis GN 4359; 0.2 in the test with P. morganii IFO 3168. The “minimal inhibitory concentration (M.I.C.)” value is recorded as 3.13 with E. coli T-7; 0.39 in the test with E. coli NIHJ JC-2; 0.1 in the test with P. vulgaris IFO 3988; 12.5 in the test with P. vulgaris GN 4413; 3.13 in the test on S. marcescens IFO 12648; 3.13 with S. marcescens TN 24. The “minimal inhibitory concentration (M.I.C.)” value in the test on P. rettgeri TN 338 was ≤ 0.012; in the test with P. rettgeri GN4733 it was 0.2; with K. pneumoniae DT, 0.1; in the test with K. pneumoniae GN 3835, 0.39; in the test on E. cloacae TN 1282, 3.13; in the test with E. coli 0-111, 0.024.

Consider `CC(=O)OCC1=C(C(=O)O)N2C(=O)C(NC(=O)/C(=N\OC(=O)NC3CCCCC3)c3csc(=N)[nH]3)C2SC1` (stereo not drawn) [Example II - 24], for which the “minimal inhibitory concentration (M.I.C.)” value is listed as 0.78 in the test with S. aureus 209P; 1.56 in the test with S. aureus 1840; 0.39 in the test with C. freundii GN 99; 0.78 in the test on C. freundii GN 1706; 0.1 in the test with P. mirabilis GN 4359; 0.39 with P. morganii IFO 3168. For the same molecule, the “minimal inhibitory concentration (M.I.C.)” value in the test with E. coli T-7 was 1.56; in the test on E. coli NIHJ JC-2 it was 0.1; in the test with P. vulgaris IFO 3988, 0.1; with P. vulgaris GN 4413, 25; with S. marcescens IFO 12648, 6.25; with S. marcescens TN 24 it was 12.5. Moreover, the “minimal inhibitory concentration (M.I.C.)” value in the test with P. rettgeri TN 338 is ≤ 0.012; with P. rettgeri GN4733, 0.05; in the test on K. pneumoniae DT, 0.05; in the test with K. pneumoniae GN 3835, 0.39; in the test with E. cloacae TN 1282, 3.13; in the test with E. coli 0-111, 0.024.

Consider `CCCCNC(=O)O/N=C(\C(=O)NC1C(=O)N2C(C(=O)O)=C(COC(C)=O)CSC12)c1csc(=N)[nH]1` (stereo not drawn) [Example II - 20], for which the “minimal inhibitory concentration (M.I.C.)” value with S. aureus 209P was found to be 1.56; in the test with S. aureus 1840 it was 1.56; in the test with C. freundii GN 99 it was 0.39; in the test with C. freundii GN 1706, 0.39; in the test with P. mirabilis GN 4359, 0.1; with P. morganii IFO 3168, 0.39. Besides, the “minimal inhibitory concentration (M.I.C.)” value came out at 3.13 in the test on E. coli T-7; 0.1 in the test with E. coli NIHJ JC-2; 0.2 in the test with P. vulgaris IFO 3988; 12.5 with P. vulgaris GN 4413; 6.25 in the test with S. marcescens IFO 12648; 12.5 in the test with S. marcescens TN 24. The “minimal inhibitory concentration (M.I.C.)” value in the test on P. rettgeri TN 338 is ≤ 0.012; in the test with P. rettgeri GN4733, 0.05; in the test with K. pneumoniae DT, 0.05; with K. pneumoniae GN 3835 it was 0.39; in the test with E. cloacae TN 1282 it was 6.25; with E. coli 0-111 it was 0.024.

For `CNC(=O)O/N=C(\C(=O)NC1C(=O)N2C(C(=O)O)=C(COC(C)=O)CSC12)c1csc(=N)[nH]1` (stereo not drawn) [Example II - 1, sodium 7-[2-(2-imino-4-thiazolin-4-yl)-2-methylcarbamoyloximinoacetamido]-3-acetoxymethyl-3-cephem-4-carboxylate (syn-isomer)], the “minimal inhibitory concentration (M.I.C.)” value is listed as 1.56 with S. aureus 209P; 3.13 in the test on S. aureus 1840; 0.1 with C. freundii GN 99; 0.39 in the test with C. freundii GN 1706; 0.1 in the test on P. mirabilis GN 4359; 0.39 in the test on P. morganii IFO 3168. For the same molecule, the “minimal inhibitory concentration (M.I.C.)” value with E. coli T-7 was determined as 0.39; in the test on E. coli NIHJ JC-2, 0.1; in the test on P. vulgaris IFO 3988 it was 0.05; in the test on P. vulgaris GN 4413 it was 12.5; in the test on S. marcescens IFO 12648, 3.13; with S. marcescens TN 24 it was 6.25. The “minimal inhibitory concentration (M.I.C.)” value was ≤ 0.012 in the test with P. rettgeri TN 338; 0.05 in the test with P. rettgeri GN4733; 0.05 in the test on K. pneumoniae DT; 0.1 in the test on K. pneumoniae GN 3835; 1.56 with E. cloacae TN 1282; ≤ 0.012 in the test with E. coli 0-111.
